This note sets out measurements from patent publication US12122802B2, “D-allose crystal and production method thereof” (MATSUTANI CHEMICAL INDUSTRY CO., LTD., priority 2019, dated 2024).

Format in all cases: physicochemical
Series [1] can be described thus: water content in crystals from weight loss on drying under reduced pressure at 70° C. for 18 hours. The settings on record: hydrous D-allose crystals (purity 99.9%, water content 17.7%) dried under the named drying conditions. The protocol:
(§1) In order to measure the water content in the crystals obtained by each of the drying methods, drying under reduced pressure under conditions at 70° C. for 18 hours was performed to calculate the water content in the crystals from the weight loss through the drying under reduced pressure. The repose angle was measured by the method described above to determine the degree of fluidity. The yield rate was calculated by the following expression. Yield rate (%)=(D/C)×100 [Expression 4]

Series [2] in a line: repose angle measured by powder tester PT-E (fluidity of anhydrous D-allose crystals). Conditions: for Degree of fluidity: evaluated from repose angle according to Table 4. The protocol: The fluidity of the anhydrous D-allose crystals obtained by drying the hydrous crystals obtained in each of Tests Nos. 1 to 12 with an evaporator (30° C., 20 hPa (abs), about 2 hours) as described above was evaluated by the repose angle measured by a powder tester PT-E (manufactured by Hosokawa Micron Corporation). Specifically, a sample was dropped and deposited on a disk, and the inclination angle was measured from three directions to obtain an average value. From the average value, the degree of fluidity was evaluated according to Table 1 in the Japanese Pharmacopoeia, 17th edition, Reference Information G2 physical property-related “Powder Fluidity” (same as the so-called Carr's fluidity index table, shown as Table 4).
as §1

The nature of series [3]: particle size distribution by laser diffraction (Mastersizer 3000, dry dispersion unit Aero S). The settings on record: average of 5 measurements, dispersion pressure 1.0 bar. An excerpt:
The melting point (Tm) in the DSC refers to the melting start temperature of the endothermic peak obtained by DSC measurement (temperature at the extrapolated intersection of the base line and the maximum slope line of the endothermic peak), and the melting enthalpy (ΔH) refers to the area of the endothermic peak (ASTM D3418-15, Standard Test Method for Transition Temperatures and Enthalpies of Fusion and Crystallization of Polymers by Differential Scanning calorimetry). Further, in the present invention, the average particle size refers to the volume-based average particle size d[4,3], which is usually measured with a laser diffraction particle size distribution analyzer.
Next, the particle size distribution of the anhydrous D-allose crystals of the present invention was examined. Specifically, the anhydrous D-allose crystals obtained in the previous Test Nos. 1 to 5, 7 to 10 and 12, were subjected to measurement of particle size distribution under the measurement conditions shown in Table 7 using “Mastersizer 3000” and a “dry dispersion unit Aero S” manufactured by Malvern Instruments. More specifically, the measurement was repeated 5 times, and the average value of the 5 times measurements was used. No great variability was seen among the 5 times measurement values. The particle size distribution was expressed on a volume basis, and the volume-based average particle size d[4,3] and standard deviation σ were recorded. Also, the coefficient of variation CV=σ/d[4,3] was calculated in order to relatively evaluate the variation in the particle size distribution.

Series [4] in a line: aspect ratio of crystals from microscopic picture (Digital microscope VHX-5000, 50x). The text has this: The “anhydrous D-allose crystals” of the present invention have an extremely large average particle size as described above and are not in a fine needle form, having a characteristic aspect ratio of the crystal. In the present invention, the aspect ratio refers to the ratio of the long diameter to the short diameter of a crystal (short diameter: minimum length of lines passing through the center of gravity of the plane shape of a crystal, long diameter: maximum length of a crystal measured orthogonal to the short diameter). In the present specification, the aspect ratio in a numerical range from A to B (A and B: arbitrary numbers) means that all of the aspect ratios of a specified number (preferably at least 10, for example 10) of crystal particles randomly selected are within the numerical range. Example of random selection of crystal particles includes a method comprising taking a microscopic picture of crystals at 20× to 50× magnification and, from the crystals on the diagonal line drawn from the upper left to the lower right of the microscopic picture taken, selecting 10 crystals with a full body shown in order from the upper left on the diagonal line. Specifically, the aspect ratio is preferably 1.0 to 10.0, more preferably 2.0 to 8.0, still more preferably 2.0 to 7.0. Next, the aspect ratio of the anhydrous D-allose crystals of the present invention was examined. Specifically, a microscopic picture of each of the anhydrous D-allose crystals obtained in the previous Test Nos. 1 to 5, 7 to 10 and 12 were taken using “Digital microscope VHX-5000” manufactured by KEYENCE Corporation (50×magnification). Among the crystals on the diagonal line drawn from the upper left to the lower right of the microscopic picture taken, 10 crystals with a full picture shown were selected in order from the upper left and then the long diameter and the short diameter of each crystal were measured for calculation of the aspect ratio (Long diameter/Short diameter, wherein short diameter refers to minimum length of lines passing through the center of gravity of the plane shape of a crystal, and long diameter refers to maximum length of a crystal measured orthogonal to the short diameter). The minimum value of the aspect ratio was 1.1 and the maximum value was 9.6 (Table 9).

Where [5] appears, read: drying tests of Table 6, crystals after the named drying conditions.

As to `O=C[C@H](O)[C@H](O)[C@H](O)[C@H](O)CO` [Conductive heat transfer drying at 70° C.] [D-allose], the “Water content (%) after drying” value in series [1] came to 0.105%. Also, the “Repose angle (degrees)” value in series [2] (setting [5]) is reported as 44 degrees. Also, the Degree of fluidity result in series [2] (drying tests of Table 6) is reported as “Passable (41~45)”.
Consider `O=C[C@H](O)[C@H](O)[C@H](O)[C@H](O)CO` [Convection heat transfer drying at 50° C., Air supply: 4700 ] [D-allose], for which the “Water content (%) after drying” value in series [1] is 0.13%. For the same molecule, the “Repose angle (degrees)” value in series [2] (setting [5]) was determined as 42 degrees. The Degree of fluidity result in series [2] (drying tests of Table 6) was “Passable (41~45)”.
In the case of `O=C[C@H](O)[C@H](O)[C@H](O)[C@H](O)CO` [Test No. 7, D-allose], the “d [4, 3] (volume-based average particle size)” value in series [3] (listed as 7) is given as 549 μm. Moreover, the “Aspect ratio (Long diameter/Short diameter)” value in series [4] (crystal ① of 10 selected, listed as 7) is recorded as 7.2; in series [4] (crystal ② of 10 selected, listed as 7) it was 1.7; in series [4] (crystal ③ of 10 selected, listed as 7) it was 5.2; in series [4] (crystal ④ of 10 selected, listed as 7), 5.5; in series [4] (crystal ⑤ of 10 selected, listed as 7) it was 2.5; in series [4] (crystal ⑥ of 10 selected, listed as 7), 4.1. In addition, the “Aspect ratio (Long diameter/Short diameter)” value in series [4] (crystal ⑦ of 10 selected, listed as 7) stood at 4.3; in series [4] (crystal ⑧ of 10 selected, listed as 7) it was 4.9; in series [4] (crystal ⑨ of 10 selected, listed as 7), 3.5; in series [4] (crystal ⑩ of 10 selected, listed as 7), 2.0. Moreover, in series [2] (anhydrous crystals of Test Nos. 1 to 12, hydrous crystals dried with evaporator (30° C., 20 hPa (abs), about 2 hours), average of three directions, listed as 7), the “Repose angle (degrees)” value worked out at 41.0 degrees. In series [2] (anhydrous crystals of Test Nos. 1 to 12), the Degree of fluidity result is listed as “Passable (41~45)”.
As to `O=C[C@H](O)[C@H](O)[C@H](O)[C@H](O)CO` [Test No. 2, D-allose], the “d [4, 3] (volume-based average particle size)” value in series [3] (listed as 2) was 563 μm. Also, the “Aspect ratio (Long diameter/Short diameter)” value came to 2.9 in series [4] (crystal ① of 10 selected, listed as 2); 3.0 in series [4] (crystal ② of 10 selected, listed as 2); 3.5 in series [4] (crystal ③ of 10 selected, listed as 2); 3.5 in series [4] (crystal ④ of 10 selected, listed as 2); 3.0 in series [4] (crystal ⑤ of 10 selected, listed as 2); 5.5 in series [4] (crystal ⑥ of 10 selected, listed as 2). Further, the “Aspect ratio (Long diameter/Short diameter)” value is listed as 2.6 in series [4] (crystal ⑦ of 10 selected, listed as 2); 4.9 in series [4] (crystal ⑧ of 10 selected, listed as 2); 3.0 in series [4] (crystal ⑨ of 10 selected, listed as 2); 4.1 in series [4] (crystal ⑩ of 10 selected, listed as 2). The “Repose angle (degrees)” value in series [2] (anhydrous crystals of Test Nos. 1 to 12, hydrous crystals dried with evaporator (30° C., 20 hPa (abs), about 2 hours), average of three directions, listed as 2) is given as 42.7 degrees.
For `O=C[C@H](O)[C@H](O)[C@H](O)[C@H](O)CO` [Test No. 5, D-allose], in series [3] (listed as 5), the “d [4, 3] (volume-based average particle size)” value is reported as 498 μm. Moreover, the “Aspect ratio (Long diameter/Short diameter)” value in series [4] (crystal ① of 10 selected, listed as 5) is recorded as 1.1; in series [4] (crystal ② of 10 selected, listed as 5), 2.7; in series [4] (crystal ③ of 10 selected, listed as 5) it was 3.2; in series [4] (crystal ④ of 10 selected, listed as 5), 2.9; in series [4] (crystal ⑤ of 10 selected, listed as 5) it was 4.7; in series [4] (crystal ⑥ of 10 selected, listed as 5), 3.0. In addition, the “Aspect ratio (Long diameter/Short diameter)” value in series [4] (crystal ⑦ of 10 selected, listed as 5) worked out at 4.9; in series [4] (crystal ⑧ of 10 selected, listed as 5), 4.1; in series [4] (crystal ⑨ of 10 selected, listed as 5) it was 1.6; in series [4] (crystal ⑩ of 10 selected, listed as 5), 3.8. For the same molecule, the “Repose angle (degrees)” value in series [2] (anhydrous crystals of Test Nos. 1 to 12, hydrous crystals dried with evaporator (30° C., 20 hPa (abs), about 2 hours), average of three directions, listed as 5) is 45.7 degrees.
Consider `O=C[C@H](O)[C@H](O)[C@H](O)[C@H](O)CO` [Test No. 12, D-allose], for which the “d [4, 3] (volume-based average particle size)” value in series [3] (listed as 12) is listed as 333 μm. The “Aspect ratio (Long diameter/Short diameter)” value in series [4] (crystal ① of 10 selected, listed as 12) amounted to 3.1; in series [4] (crystal ② of 10 selected, listed as 12), 3.3; in series [4] (crystal ③ of 10 selected, listed as 12) it was 4.2; in series [4] (crystal ④ of 10 selected, listed as 12) it was 3.8; in series [4] (crystal ⑤ of 10 selected, listed as 12), 3.6; in series [4] (crystal ⑥ of 10 selected, listed as 12) it was 4.4. The “Aspect ratio (Long diameter/Short diameter)” value in series [4] (crystal ⑦ of 10 selected, listed as 12) amounted to 4.7; in series [4] (crystal ⑧ of 10 selected, listed as 12) it was 3.7; in series [4] (crystal ⑨ of 10 selected, listed as 12), 3.7; in series [4] (crystal ⑩ of 10 selected, listed as 12), 1.3. Further, the “Repose angle (degrees)” value in series [2] (anhydrous crystals of Test Nos. 1 to 12, hydrous crystals dried with evaporator (30° C., 20 hPa (abs), about 2 hours), average of three directions, listed as 12) was determined as 41.3 degrees.
Take `O=C[C@H](O)[C@H](O)[C@H](O)[C@H](O)CO` [Test No. 4, D-allose]: the “d [4, 3] (volume-based average particle size)” value in series [3] (listed as 4) is recorded as 588 μm. The “Aspect ratio (Long diameter/Short diameter)” value in series [4] (crystal ① of 10 selected, listed as 4) was found to be 4.3; in series [4] (crystal ② of 10 selected, listed as 4) it was 4.0; in series [4] (crystal ③ of 10 selected, listed as 4), 4.2; in series [4] (crystal ④ of 10 selected, listed as 4), 2.0; in series [4] (crystal ⑤ of 10 selected, listed as 4) it was 6.0; in series [4] (crystal ⑥ of 10 selected, listed as 4) it was 1.1. Besides, the “Aspect ratio (Long diameter/Short diameter)” value in series [4] (crystal ⑦ of 10 selected, listed as 4) is on record as 3.9; in series [4] (crystal ⑧ of 10 selected, listed as 4), 8.1; in series [4] (crystal ⑨ of 10 selected, listed as 4), 3.8; in series [4] (crystal ⑩ of 10 selected, listed as 4), 4.1. Besides, the “Repose angle (degrees)” value in series [2] (anhydrous crystals of Test Nos. 1 to 12, hydrous crystals dried with evaporator (30° C., 20 hPa (abs), about 2 hours), average of three directions, listed as 4) was found to be 42.3 degrees.
